Earlier results as cited in US20130018223A1, “METHOD FOR TIMING A COLONOSCOPY” (priority 2011, published 2013).

[O]=[Mg] [Magnesium oxide]
solubility in alcohol: not soluble
